In ChEMBL document CHEMBL5678818, “Discovery of potent SOS1 inhibitors that block RAS activation via disruption of the RAS-SOS1 interaction” (Proc Natl Acad Sci U S A, 2019):

Columns and labels:
[1] = biological target: T1, Ephrin type-A receptor 3 (Homo sapiens) (UniProt P29320); assay: Inhibition of EPHA3 (unknown origin) assessed as residual activity at 1000 nM by KINOMEscan analysis relative to control
T1 sequence (whole entry): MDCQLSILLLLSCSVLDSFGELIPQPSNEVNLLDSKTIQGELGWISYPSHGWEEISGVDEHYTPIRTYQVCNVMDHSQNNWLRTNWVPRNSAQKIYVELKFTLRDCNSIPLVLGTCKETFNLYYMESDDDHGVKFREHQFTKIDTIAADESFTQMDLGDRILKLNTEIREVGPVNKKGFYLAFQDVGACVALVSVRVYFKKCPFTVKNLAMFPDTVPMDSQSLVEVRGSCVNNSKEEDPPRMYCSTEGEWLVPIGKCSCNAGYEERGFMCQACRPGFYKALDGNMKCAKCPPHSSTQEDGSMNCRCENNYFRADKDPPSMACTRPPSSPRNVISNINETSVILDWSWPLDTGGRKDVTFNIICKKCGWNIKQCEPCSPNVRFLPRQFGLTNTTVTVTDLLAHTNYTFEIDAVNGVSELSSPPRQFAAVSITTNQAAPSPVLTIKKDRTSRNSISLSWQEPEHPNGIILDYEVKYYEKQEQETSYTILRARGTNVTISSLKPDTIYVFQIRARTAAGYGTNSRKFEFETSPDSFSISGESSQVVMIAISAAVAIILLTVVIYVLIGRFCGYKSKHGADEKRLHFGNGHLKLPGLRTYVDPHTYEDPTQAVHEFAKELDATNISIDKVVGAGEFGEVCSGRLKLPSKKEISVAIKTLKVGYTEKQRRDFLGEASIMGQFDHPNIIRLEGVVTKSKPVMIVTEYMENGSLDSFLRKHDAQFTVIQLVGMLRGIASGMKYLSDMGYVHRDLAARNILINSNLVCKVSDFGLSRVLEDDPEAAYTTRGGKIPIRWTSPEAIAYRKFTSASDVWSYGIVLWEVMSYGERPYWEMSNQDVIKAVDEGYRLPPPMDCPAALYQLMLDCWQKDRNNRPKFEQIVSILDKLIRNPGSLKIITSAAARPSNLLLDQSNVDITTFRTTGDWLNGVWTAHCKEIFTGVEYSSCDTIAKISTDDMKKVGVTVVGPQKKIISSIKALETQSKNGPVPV

[2] = biological target: T2, Serine/threonine-protein kinase ULK2 (Homo sapiens) (UniProt Q8IYT8); assay: Inhibition of ULK2 (unknown origin) assessed as residual activity at 1000 nM by KINOMEscan analysis relative to control
T2 sequence (whole entry): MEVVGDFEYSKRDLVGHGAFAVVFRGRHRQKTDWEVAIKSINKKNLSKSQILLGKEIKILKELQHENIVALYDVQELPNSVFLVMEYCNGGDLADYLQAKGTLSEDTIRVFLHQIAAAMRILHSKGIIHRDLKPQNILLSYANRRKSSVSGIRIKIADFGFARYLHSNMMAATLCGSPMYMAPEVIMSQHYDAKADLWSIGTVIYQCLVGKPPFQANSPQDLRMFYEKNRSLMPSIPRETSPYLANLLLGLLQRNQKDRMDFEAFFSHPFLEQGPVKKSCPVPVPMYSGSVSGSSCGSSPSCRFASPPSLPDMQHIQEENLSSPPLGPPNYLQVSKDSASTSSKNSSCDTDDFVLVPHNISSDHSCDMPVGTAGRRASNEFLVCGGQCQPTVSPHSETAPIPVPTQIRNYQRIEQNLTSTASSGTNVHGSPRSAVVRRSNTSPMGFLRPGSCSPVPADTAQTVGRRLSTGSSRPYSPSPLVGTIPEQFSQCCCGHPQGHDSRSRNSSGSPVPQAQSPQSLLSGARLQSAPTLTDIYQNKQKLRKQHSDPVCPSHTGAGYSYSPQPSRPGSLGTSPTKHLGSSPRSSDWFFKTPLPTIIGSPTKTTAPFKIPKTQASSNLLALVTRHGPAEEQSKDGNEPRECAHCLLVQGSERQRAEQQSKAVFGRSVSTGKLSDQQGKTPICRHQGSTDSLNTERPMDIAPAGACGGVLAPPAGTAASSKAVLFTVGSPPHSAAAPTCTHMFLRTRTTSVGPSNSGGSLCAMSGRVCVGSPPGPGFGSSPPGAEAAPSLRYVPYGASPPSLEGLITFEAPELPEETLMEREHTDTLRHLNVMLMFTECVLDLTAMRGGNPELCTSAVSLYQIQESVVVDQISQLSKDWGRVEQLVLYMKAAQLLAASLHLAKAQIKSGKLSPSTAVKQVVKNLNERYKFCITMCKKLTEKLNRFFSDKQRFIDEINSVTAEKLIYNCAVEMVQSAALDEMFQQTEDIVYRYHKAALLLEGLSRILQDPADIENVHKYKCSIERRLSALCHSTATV

[3] = biological target: Calcium/calmodulin-dependent protein kinase type II subunit beta (Homo sapiens) (UniProt Q13554); assay: Inhibition of CAMK2B (unknown origin) assessed as residual activity at 1000 nM by KINOMEscan analysis relative to control
Sequence of Calcium/calmodulin-dependent protein kinase type II subunit beta (Homo sapiens) (Q13554 whole entry): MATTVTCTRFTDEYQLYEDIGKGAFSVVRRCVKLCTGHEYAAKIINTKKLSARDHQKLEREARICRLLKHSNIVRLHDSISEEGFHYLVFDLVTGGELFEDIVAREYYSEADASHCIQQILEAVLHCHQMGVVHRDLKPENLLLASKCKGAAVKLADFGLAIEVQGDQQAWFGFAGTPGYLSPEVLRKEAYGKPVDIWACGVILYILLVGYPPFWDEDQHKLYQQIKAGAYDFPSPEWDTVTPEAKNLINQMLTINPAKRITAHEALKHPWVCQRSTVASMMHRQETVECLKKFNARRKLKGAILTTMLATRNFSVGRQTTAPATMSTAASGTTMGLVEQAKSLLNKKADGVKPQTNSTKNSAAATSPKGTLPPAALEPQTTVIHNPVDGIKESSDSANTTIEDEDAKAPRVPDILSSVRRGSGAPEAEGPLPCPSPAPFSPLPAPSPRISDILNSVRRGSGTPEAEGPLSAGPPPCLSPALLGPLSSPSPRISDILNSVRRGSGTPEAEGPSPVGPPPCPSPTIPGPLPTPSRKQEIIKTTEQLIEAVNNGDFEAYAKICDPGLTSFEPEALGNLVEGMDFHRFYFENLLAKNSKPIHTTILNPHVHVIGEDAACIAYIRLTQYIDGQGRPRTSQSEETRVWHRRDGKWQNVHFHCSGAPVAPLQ

[4] = biological target: Dual specificity mitogen-activated protein kinase kinase 2 (Homo sapiens) (UniProt P36507); assay: Inhibition of MEK2 (unknown origin) assessed as residual activity at 1000 nM by KINOMEscan analysis relative to control
Sequence of Dual specificity mitogen-activated protein kinase kinase 2 (Homo sapiens) (P36507 whole entry): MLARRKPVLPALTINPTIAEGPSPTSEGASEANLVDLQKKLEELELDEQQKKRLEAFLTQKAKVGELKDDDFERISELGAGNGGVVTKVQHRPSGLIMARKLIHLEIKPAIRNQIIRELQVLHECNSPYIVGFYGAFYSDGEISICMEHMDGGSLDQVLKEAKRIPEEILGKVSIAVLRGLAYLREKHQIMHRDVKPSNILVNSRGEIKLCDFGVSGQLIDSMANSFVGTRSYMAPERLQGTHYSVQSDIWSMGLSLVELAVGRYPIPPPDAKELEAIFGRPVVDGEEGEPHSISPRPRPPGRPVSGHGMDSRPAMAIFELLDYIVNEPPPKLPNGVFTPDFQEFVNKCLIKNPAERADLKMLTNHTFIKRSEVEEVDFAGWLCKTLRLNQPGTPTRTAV

[5] = biological target: Serine/threonine-protein kinase 32C (Homo sapiens) (UniProt Q86UX6); assay: Inhibition of YANK3 (unknown origin) assessed as residual activity at 1000 nM by KINOMEscan analysis relative to control
Sequence of Serine/threonine-protein kinase 32C (Homo sapiens) (Q86UX6 whole entry): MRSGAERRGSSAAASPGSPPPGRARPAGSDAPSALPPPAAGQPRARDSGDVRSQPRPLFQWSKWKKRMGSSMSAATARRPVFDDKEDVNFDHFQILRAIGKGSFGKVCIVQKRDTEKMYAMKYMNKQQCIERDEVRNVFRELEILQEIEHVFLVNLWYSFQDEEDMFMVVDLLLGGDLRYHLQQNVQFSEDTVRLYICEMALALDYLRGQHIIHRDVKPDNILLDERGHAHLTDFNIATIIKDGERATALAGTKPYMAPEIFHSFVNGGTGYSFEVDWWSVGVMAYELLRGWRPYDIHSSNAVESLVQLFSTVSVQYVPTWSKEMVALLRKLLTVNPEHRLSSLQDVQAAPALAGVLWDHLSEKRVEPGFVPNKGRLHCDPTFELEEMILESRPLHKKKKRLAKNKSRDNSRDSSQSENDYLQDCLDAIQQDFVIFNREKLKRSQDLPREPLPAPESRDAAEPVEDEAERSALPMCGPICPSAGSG

[6] = biological target: Serine/threonine-protein kinase MRCK beta (Homo sapiens) (UniProt Q9Y5S2); assay: Inhibition of MRCKB (unknown origin) assessed as residual activity at 1000 nM by KINOMEscan analysis relative to control
Sequence of Serine/threonine-protein kinase MRCK beta (Homo sapiens) (Q9Y5S2 whole entry): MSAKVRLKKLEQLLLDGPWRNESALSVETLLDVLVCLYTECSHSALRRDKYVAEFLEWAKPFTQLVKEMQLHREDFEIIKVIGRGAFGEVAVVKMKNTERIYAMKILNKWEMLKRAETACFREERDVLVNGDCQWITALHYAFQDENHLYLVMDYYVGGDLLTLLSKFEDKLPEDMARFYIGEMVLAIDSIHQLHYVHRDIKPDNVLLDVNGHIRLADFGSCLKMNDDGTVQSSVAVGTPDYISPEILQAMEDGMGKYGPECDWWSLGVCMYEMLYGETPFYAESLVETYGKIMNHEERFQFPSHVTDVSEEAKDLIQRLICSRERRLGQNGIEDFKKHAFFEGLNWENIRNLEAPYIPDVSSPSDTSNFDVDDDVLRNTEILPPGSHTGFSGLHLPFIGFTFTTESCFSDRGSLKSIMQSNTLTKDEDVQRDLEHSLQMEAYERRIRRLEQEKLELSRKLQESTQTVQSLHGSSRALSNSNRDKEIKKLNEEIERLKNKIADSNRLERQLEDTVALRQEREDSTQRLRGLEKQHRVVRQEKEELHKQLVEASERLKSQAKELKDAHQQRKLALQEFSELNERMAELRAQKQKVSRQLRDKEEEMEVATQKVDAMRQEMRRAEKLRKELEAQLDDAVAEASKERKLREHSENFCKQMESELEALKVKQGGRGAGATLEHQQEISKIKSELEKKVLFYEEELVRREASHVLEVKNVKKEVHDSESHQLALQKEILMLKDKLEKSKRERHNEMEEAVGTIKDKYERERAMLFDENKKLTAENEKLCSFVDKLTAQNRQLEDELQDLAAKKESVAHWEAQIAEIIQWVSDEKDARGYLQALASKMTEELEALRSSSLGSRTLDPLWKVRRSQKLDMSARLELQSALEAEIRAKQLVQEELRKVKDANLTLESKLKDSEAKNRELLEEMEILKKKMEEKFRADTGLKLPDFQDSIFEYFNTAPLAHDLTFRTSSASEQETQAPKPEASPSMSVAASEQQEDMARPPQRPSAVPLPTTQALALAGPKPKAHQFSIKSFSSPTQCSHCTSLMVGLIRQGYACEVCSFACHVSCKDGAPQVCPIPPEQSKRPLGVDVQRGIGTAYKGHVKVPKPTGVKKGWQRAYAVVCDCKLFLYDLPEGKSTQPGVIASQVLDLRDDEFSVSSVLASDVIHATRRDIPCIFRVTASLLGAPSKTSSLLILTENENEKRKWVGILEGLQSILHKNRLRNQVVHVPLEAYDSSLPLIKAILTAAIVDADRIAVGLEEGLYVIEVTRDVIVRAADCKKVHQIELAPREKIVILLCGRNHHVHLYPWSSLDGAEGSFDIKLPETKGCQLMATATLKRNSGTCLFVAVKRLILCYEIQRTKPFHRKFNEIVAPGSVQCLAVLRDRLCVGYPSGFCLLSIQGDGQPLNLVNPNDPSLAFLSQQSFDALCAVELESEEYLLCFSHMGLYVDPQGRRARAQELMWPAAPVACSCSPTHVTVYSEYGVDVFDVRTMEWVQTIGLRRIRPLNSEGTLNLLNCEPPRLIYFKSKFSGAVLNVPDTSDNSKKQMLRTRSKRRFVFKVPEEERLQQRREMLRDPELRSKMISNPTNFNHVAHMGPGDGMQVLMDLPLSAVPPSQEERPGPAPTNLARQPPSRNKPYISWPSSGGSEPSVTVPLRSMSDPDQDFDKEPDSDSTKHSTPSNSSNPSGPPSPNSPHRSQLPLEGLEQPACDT

[7] = system: Epidermal growth factor receptor (Homo sapiens), P00533 [L861Q]; assay: Inhibition of EGFR L861Q mutant (unknown origin) assessed as residual activity at 1000 nM by KINOMEscan analysis relative to control
[8] = biological target: AP2-associated protein kinase 1 (Homo sapiens) (UniProt Q2M2I8); assay: Inhibition of AAK1 (unknown origin) assessed as residual activity at 1000 nM by KINOMEscan analysis relative to control
Sequence of AP2-associated protein kinase 1 (Homo sapiens) (Q2M2I8 whole entry, looked up): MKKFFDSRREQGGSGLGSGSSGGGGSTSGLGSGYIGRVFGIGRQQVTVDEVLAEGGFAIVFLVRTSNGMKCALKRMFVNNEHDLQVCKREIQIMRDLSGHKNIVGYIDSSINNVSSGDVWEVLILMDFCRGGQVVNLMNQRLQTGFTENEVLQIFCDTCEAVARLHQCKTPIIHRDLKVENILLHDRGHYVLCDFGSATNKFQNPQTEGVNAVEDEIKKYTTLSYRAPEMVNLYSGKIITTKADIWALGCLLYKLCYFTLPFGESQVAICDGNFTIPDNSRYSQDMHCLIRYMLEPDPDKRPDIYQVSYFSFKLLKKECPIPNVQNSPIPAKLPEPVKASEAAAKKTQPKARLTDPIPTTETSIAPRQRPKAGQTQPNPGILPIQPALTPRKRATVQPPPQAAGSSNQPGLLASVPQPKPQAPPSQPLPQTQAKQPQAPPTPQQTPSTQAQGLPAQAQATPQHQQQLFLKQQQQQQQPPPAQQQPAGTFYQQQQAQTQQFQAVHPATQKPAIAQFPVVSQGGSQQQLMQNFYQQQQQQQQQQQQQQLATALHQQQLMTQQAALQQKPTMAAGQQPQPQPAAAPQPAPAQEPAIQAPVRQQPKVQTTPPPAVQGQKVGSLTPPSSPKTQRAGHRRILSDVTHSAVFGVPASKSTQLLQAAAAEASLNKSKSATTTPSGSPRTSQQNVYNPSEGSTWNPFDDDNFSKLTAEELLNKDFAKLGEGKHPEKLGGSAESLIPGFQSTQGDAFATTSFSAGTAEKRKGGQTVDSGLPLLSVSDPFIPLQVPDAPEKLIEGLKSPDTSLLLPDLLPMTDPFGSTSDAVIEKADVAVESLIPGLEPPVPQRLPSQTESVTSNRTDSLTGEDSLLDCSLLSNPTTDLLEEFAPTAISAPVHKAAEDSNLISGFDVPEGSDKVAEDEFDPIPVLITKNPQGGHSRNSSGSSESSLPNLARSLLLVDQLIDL

| Compound | Activity [1] [%] | Activity [2] [%] | Activity [3] [%] | Activity [4] [%] | Activity [5] [%] | Activity [6] [%] | Activity [7] [%] | Activity [8] [%] |
| --- | --- | --- | --- | --- | --- | --- | --- | --- |
| COc1cc2nc(C)nc(N[C@H](C)c3cccc(-c4cn[nH]c4)c3)c2cc1OC | 90 | 60 | 97 | 63 | 98 | 56 | 86 | 100 |
| COc1cc2ncnc(N[C@H](C)c3cccc4ccccc34)c2cc1OC | 48 | 92 | 96 | 91 | 100 | 100 | 1.1 | 100 |
